Data on seven compounds can be found in PubChem BioAssay (NCI).

What all share (assay): inhibition of tumour cell growth, NCI panel, 48 h
The test system of assay [1] is COLO 205 colon.
For assay [2], the system named is HCT-15 colon.
The subject of assay [3] is HOP-92 NSCLC.
For assay [4], the system named is IGROV1 ovarian.
Assay [5] deals with M14 melanoma.
Assay [6] has as its system NCI-H23 lung.
The subject of assay [7] is NCI-H522 lung.
Assay [8] has as its system RPMI-8226 leukemia.
For assay [9], the system named is SNB-75 CNS.
For assay [10], the system named is UO-31 renal.

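Each compound was tested at five concentrations against cells in 96-well plates for 48 hours. Abbreviation: GI50, concentration required for 50% inhibition of growth. TGI is the concentration that stops growth completely.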

As for `C/C(=N\N=C(N)N)c1sc(-c2nc(C)c(/C(C)=N/N=C(N)N)s2)nc1C`, the TGI in assay [1] is greater than 90.6 µM; in assay [2] it was greater than 66.9 µM; in assay [3], greater than 100 µM; in assay [4], greater than 100 µM; in assay [5] it was greater than 100 µM; in [6] it was greater than 100 µM. The TGI in assay [7] was greater than 77 µM; in [8], greater than 100 µM; in assay [9], greater than 100 µM; in assay [10], greater than 100 µM.

Turning to `COc1cc(SC)ccc1C(=O)N1CCCC(C)C1` (centres undefined), the GI50 in assay [1] is greater than 100 µM; in assay [2] it was greater than 100 µM; in assay [3], 95.7 µM; in [4], greater than 100 µM; in assay [5], greater than 100 µM; in assay [6], 70 µM. Besides, the GI50 was greater than 100 µM in [7], 69.2 µM in assay [8], greater than 100 µM in assay [9] and greater than 100 µM in assay [10]. The TGI in [1], in assay [2], in assay [3], in assay [4], in [5] and in assay [6] was greater than 100 µM each time. Moreover, the TGI in [7], in assay [8], in assay [9] and in assay [10] was greater than 100 µM throughout.

Take `CCn1cc(C2NC(=O)c3cc(F)ccc3N2)c2cccc(Cl)c21` (centres undefined): the GI50 in assay [1] was 0.349 µM; in [2] it was 0.0968 µM; in assay [3] it was greater than 24.4 µM; in assay [4], 0.388 µM; in assay [5], 0.138 µM; in assay [6] it was 0.508 µM. The GI50 in assay [7] was 0.135 µM; in [8], 0.359 µM; in assay [9], 0.123 µM; in assay [10], 2.88 µM. The TGI in assay [2] is greater than 100 µM; in [3] it was greater than 100 µM; in assay [4], greater than 100 µM; in assay [5] it was greater than 100 µM; in assay [6], greater than 100 µM; in assay [7] it was greater than 32.1 µM. The figures for the TGI in assay [8], in [9] and in [10] were greater than 100 µM, 11.9 µM and greater than 100 µM, respectively.

For the compound `Nc1nc(Cl)cc(NCCCCCCCCCCNc2cc(Cl)nc(N)n2)n1`, the TGI in assay [1], in assay [2], in assay [3], in assay [4], in assay [5] and in [6] was greater than 100 µM throughout. Also, the TGI in assay [7] is 11.5 µM; in assay [8], 91.4 µM; in assay [9], 68.8 µM; in [10] it was greater than 100 µM.

Turning to `N#CC(/C(=N\NC(N)=S)C(=O)NC1C2CC3CC(C2)CC1C3)c1ccc(Cl)cc1` (centres undefined), the TGI in assay [1], in [2], in [3], in assay [4], in assay [5] and in assay [6] was greater than 100 µM each time. Besides, the TGI in assay [7], in assay [8], in assay [9] and in [10] was greater than 100 µM in each case.

As to `COCCOC(=O)CCn1cc(F)c(=O)[nH]c1=O`, the GI50 in [1] is 4.75 µg/mL; in [2], 6.72 µg/mL; in [3], 77.6 µg/mL; in assay [4], 7.36 µg/mL; in assay [5], 8.38 µg/mL; in assay [6], 17.2 µg/mL. Further, the GI50 in assay [7] is 131 µg/mL; in assay [8], 13.8 µg/mL; in [9], 88.4 µg/mL; in assay [10] it was 1.82 µg/mL. Besides, the TGI in [1], in assay [2], in assay [3], in [4], in assay [5] and in [6] was greater than 150 µg/mL throughout. Besides, the TGI in [7], in assay [8], in assay [9] and in assay [10] was greater than 150 µg/mL each time.

`COc1cc(Nc2ncc(-c3ccccc3)o2)cc(OC)c1OC`: the GI50 in assay [1] is 2.15 µM; in assay [2], 0.547 µM; in [3], 4.27 µM; in assay [4], 1.28 µM; in [5], 1.26 µM; in [6], 2.84 µM. In addition, the GI50 in assay [7] was 0.925 µM; in [8], 16.3 µM; in assay [9], 0.577 µM; in assay [10] it was 1.84 µM. The TGI in assay [1], in [2], in assay [3], in assay [4], in assay [5] and in assay [6] was greater than 25 µM in each case. Moreover, the TGI is greater than 25 µM in assay [7], greater than 25 µM in assay [8], greater than 19.2 µM in assay [9] and greater than 25 µM in assay [10].
